Assay results from patent US4667019A, “Azo dyes containing a triazolyl group for use in liquid crystalline materials” (Kernforschungszentrum Karlsruhe GmbH, priority 1986, dated 1987).

What was measured:
Type in all cases: physicochemical
[1] = solubility L in ZLI 1840 at room temperature; details: ZLI 1840 (Merck), stirred 1 week
Protocol: (§1) The degrees of order S and the solubilities L, both measured at room temperature in the ZLI 1840 wide-range mixture from Merck, are summarized in Table 1 for Examples 1-18. The degrees of order S and the solubilities L for Examples 19-32, measured at room temperature in the […] liquid crystal mixture from Merck, are summarized in Table 3.
(§2) The solubility was determined as follows: 50 mg of the particular dye were stirred into 1 ml of ZLI 1840 at room temperature for 1 week, and saturation of the soluton was determined by comparing extinction values.

[2] = light-stability, high-speed exposure of the measuring cell in a Suntest; details: 25° C
Protocol: The light-stability was determined by high-speed exposure of the measuring cell in a Suntest from Hanau, at 25° C. In this procedure, the decrease in E^.parallel. was measured. The initial extinction E^.parallel. and the exposure time E^.parallel.80% after which E^.parallel. has decreased to 80% are shown in Table 2 for Examples 5, 8, 9, 10, 11, 12, 13, 14 and 15. The percentage change in E^.parallel.0 is plotted against the exposure time in FIGS. 2, 3 and 4 for Examples 8, 11 and 15.

[3] = degree of order S (dichroic ratio CR) in ZLI 1840 at room temperature; parameters: key: S = (CR-1)/(CR+2), with CR = E∥/E⊥ dichroic ratio; details: ZLI 1840 wide-range mixture (Merck)
Protocol: as §1
(§3) The degree of order S was determined in accordance with the known equation S=(CR-1)/(CR+2), using commercial measuring cells with homogeneous edge orientation. The dichroic ratio CR was determined by measuring the extinctions E^.parallel. (measured using polarized light parallel to the preferred direction of the nematic phase) and E^.perp. (measured using polarized light perpendicular to the preferred direction of the nematic phase) and using the relationship CR=E^.parallel. /E^.perp. the dye concentration being chosen so that E^.parallel. was from 1 to 2. The measurements were carried out using a Beckman Acta CIII spectrophotometer.

[4] = degree of order S (dichroic ratio CR) in ZLI 1957/5 at room temperature; details: ZLI 1957/5 liquid crystal mixture (Merck)
Protocol: as §1, §3

[5] = solubility L in ZLI 1957/5 at room temperature; details: ZLI 1957/5 liquid crystal mixture (Merck)
Protocol: as §1, §2

| Solubility L [1] | exposure time E∥80% after which E∥ has decreased to 80% [2] | Degree of order S [3] | Degree of order S [4] | Solubility L [5] | SMILES |
| --- | --- | --- | --- | --- | --- |
| > 5% | 97 h | 0,74 | – | – | CCCCN(CCCC)c1ccc(N=Nc2ccc(N=Nc3ccc(-n4nc5ccc(C)cc5n4)c(C)c3)c(C)c2)cc1 [Example 13] |
| 0,5% | – | 0,74 | – | – | CCCCOc1ccc(N=Nc2ccc(N=Nc3ccc(-n4nc5ccc(C)cc5n4)c(C)c3)c(C)c2)c(C)c1 [Example 16] |
| > 5% | – | 0,77 | – | – | CCCCN(C)c1ccc(N=Nc2ccc(N=Nc3ccc(-n4nc5ccc(C)cc5n4)c(C)c3)c(C)c2)cc1 [Example 24] |
| – | 170 h | – | – | – | Cc1ccc2nn(-c3ccc(N=Nc4ccc(N=Nc5ccc(N)cc5C)cc4C)cc3C)nc2c1 [Example 11] |
| 2,8% | – | 0,76 | – | – | Cc1ccc2nn(-c3ccc(N=Nc4ccc(N=Nc5ccc(N(C)C)cc5)cc4C)cc3C)nc2c1 [Example 21] |
| 1,9% | – | 0,79 | – | – | Cc1ccc2nn(-c3ccc(N=Nc4ccc(N=Nc5ccc(NCc6ccccc6)cc5)cc4C)cc3C)nc2c1 [Example 23] |
| 2,0% | – | 0,76 | – | – | Cc1ccc2nn(-c3ccc(N=Nc4ccc(N=Nc5ccc(N(C)C)cc5C)cc4C)cc3C)nc2c1 [Example 26] |
| 0,6% | – | 0,74 | – | – | Cc1ccc2nn(-c3ccc(N=Nc4cc(C)c(N=Nc5ccc(OCc6ccccc6)cc5C)cc4C)cc3C)nc2c1 [Example 17] |
| – | – | – | 0,72 | 1,5% | Cc1ccc2nn(-c3ccc(N=Nc4ccc(N=Nc5ccc(N(C)CC(C)C)cc5C)cc4C)cc3C)nc2c1 [Example 28] |
| 1,9% | – | 0,76 | – | – | Cc1ccc2nn(-c3ccc(N=Nc4ccc(N=Nc5ccc(N(C)Cc6ccccc6)cc5)cc4C)cc3C)nc2c1 [Example 25] |
| > 5% | – | 0,77 | – | – | CCCCNc1ccc(N=Nc2ccc(N=Nc3ccc(-n4nc5ccc(C)cc5n4)c(C)c3)c(C)c2)cc1 [Example 22] |
| 2,8% | 68 h | 0,79 | – | – | CCCCc1ccc2nn(-c3ccc(N=Nc4ccc(N=Nc5ccc(N(C)C)cc5)cc4C)cc3C)nc2c1 [Example 15] |

Second part, the molecule before the results:

| SMILES | Solubility L [1] | exposure time E∥80% after which E∥ has decreased to 80% [2] | Degree of order S [3] | Degree of order S [4] | Solubility L [5] |
| --- | --- | --- | --- | --- | --- |
| CCCCc1ccc2nn(-c3ccc(N=Nc4cc(C)c(N=Nc5ccc(N(C)C)cc5)cc4C)cc3C)nc2c1 [Example 14] | > 2,3% | 111 h | 0,76 | – | – |
| Cc1nn(-c2cc(C#N)c(N=Nc3ccc(N=Nc4ccc(N(C)C)cc4)cc3)c(C#N)c2)nc1C [Example 7] | < 0,1% | – | 0,74 | – | – |
| Cc1nn(-c2ccc(N=Nc3ccc(N=Nc4ccc(N(C)C)cc4)cc3)cc2)nc1C [Example 3] | 0,4% | – | 0,74 | – | – |
| CCCCN(C)c1ccc(N=Nc2cc(C)c(N=Nc3ccc(-n4nc5ccc(C)cc5n4)c(C)c3)cc2OC)cc1 [Example 29] | – | – | – | 0,71 | 0,5% |
| CCOC(=O)c1nn(-c2ccc(N=Nc3cc(C)c(N=Nc4ccc(N(C)C)cc4)cc3C)cc2)nc1C [Example 5] | 0,2% | 101 h | 0,73 | – | – |
| Cc1nn(-c2ccc(N=Nc3ccc(N4CCOCC4)cc3)cc2)nc1C [Example 1] | – | – | 0,64 | – | – |
| Cc1ccc2nn(-c3cc(C)c(N=Nc4cc(C)c(N=Nc5ccc(N(C)C)cc5)cc4C)cc3C)nc2c1 [Example 9] | 0,5% | 111 h | 0,76 | – | – |
| CCCCN(C)c1ccc(N=Nc2cc(OC)c(N=Nc3ccc(-n4nc5ccc(C)cc5n4)c(C)c3)cc2OC)cc1 [Example 30] | – | – | – | 0,67 | 0,3% |
| CCCCN(C)c1ccc(N=Nc2cc(C)c(N=Nc3ccc(-n4nc5ccc(C)cc5n4)c(C)c3)cc2C)cc1 [Example 20] | – | – | – | 0,74 | 2,0% |
| Cc1nn(-c2cc(Br)c(N=Nc3ccc(N=Nc4ccc(N(C)C)cc4)cc3)c(Br)c2)nc1C [Example 6] | 1,8% | – | 0,61 | – | – |
| COc1cc(N=Nc2ccc(N(C)C)cc2)ccc1N=Nc1ccc(-n2nc(C)c(C)n2)cc1 [Example 4] | 0,7% | – | 0,70 | – | – |
| CCCCc1ccc2nn(-c3ccc(N=Nc4cc(C)c(N=Nc5ccc(N(C)C)c6ccccc56)cc4C)cc3C)nc2c1 [Example 32] | 0,1% | – | 0,65 | – | – |
| CCOC(=O)c1nn(-c2ccc(N=Nc3ccc(N=Nc4ccc(N(C)C)cc4)c4ccccc34)cc2)nc1C [Example 8] | 0,5% | 27,5 h | 0,74 | – | – |
| CCCCOC(=O)c1ccc2nn(-c3ccc(N=Nc4cc(C)c(N=Nc5ccc(N(C)C)cc5)cc4C)cc3C)nc2c1 [Example 19] | 0,3% | – | 0,76 | – | – |
| CCC1CCC(c2ccc(COc3ccc(N=Nc4cc(C)c(N=Nc5ccc(-n6nc7ccc(C)cc7n6)c(C)c5)cc4C)c(C)c3)cc2)CC1 (stereo not shown) [Example 18] | 2,9% | – | 0,77 | – | – |
| CN(C)c1ccc(N=Nc2ccc(-n3nc4c(n3)CCCC4)cc2)cc1 [Example 2] | 1,4% | – | 0,71 | – | – |
| CCCCc1ccc2nn(-c3ccc(N=Nc4ccc(N=Nc5ccc(N(C)C)cc5C)cc4C)cc3C)nc2c1 [Example 27] | 3,9% | – | 0,75 | – | – |
| CCCCc1ccc2nn(-c3ccc(N=Nc4cc(C)c(N=Nc5ccc(NC)c6ccccc56)cc4C)cc3C)nc2c1 [Example 31] | 2,0% | – | 0,70 | – | – |
| Cc1ccc2nn(-c3ccc(N=Nc4cc(C)c(N=Nc5ccc(N(C)C)cc5)cc4C)cc3)nc2c1 [Example 10] | 0,6% | 147 h | 0,73 | – | – |
